The results in this text go back to patent US9981972B2, “N-hydroxy bicyclic hydantoin carbamates as tools for identification of serine hydrolase targets” (ABIDE THERAPEUTICS, INC., priority 2014, dated 2018).

Molecules are shown by their SMILES. Entries after “also recorded” stand apart in the source; their conditions may differ. Where two headings read alike, the source gives them in different places. A value given as a limit tells only on which side of the number the result lay.

Experiment [1] has as its system mouse LYPLA1/2 (quantified together). Nature of the experiment: IC50 by gel-based competitive ABPP in vitro, mouse brain membrane proteome. It is filed as biochemical. On the procedure:
Assay Overview: The purpose of this assay was to determine IC50 values of powder samples of test compounds for enzyme of interest activity, and anti-targets in a complex proteomic lysate using a gel-based competitive ABPP assay. In this assay, a complex proteome was incubated with test compound followed by reaction with FP-Rh and SDS-PAGE analysis as described above.
Protocol Summary: Soluble HeLa cell proteome (50 μL reaction volume, 1 mg/mL in DPBS) or mouse brain membrane proteome (50 μL reaction volume, 1 mg/mL in DPBS) was treated with varying concentrations of test compound (1 μL of a 50× stock in DMSO) for 30 minutes at 37° C. FP-Rh (1 μL of 50× stock in DMSO) was added to a final concentration of 2 μM. The reaction was incubated for 30 minutes at 25° C., quenched with 16 μL 4×SDS-PAGE loading buffer (reducing), separated by SDS-PAGE and visualized by in-gel fluorescent scanning. The percentage activity remaining was determined by measuring the integrated optical density of the enzymes of interest, and anti-target bands relative to a DMSO-only (no compound) control. IC50 values were determined from dose-response curves from three replicates at each inhibitor concentration: 1, 10, 100, 1000, 10000 nM and 0.01, 0.1, 1, 10, 100, 1000, 10000, 50000, and 100000 nM.

The target of experiment [2] is T1, mABHD3 (Mus musculus, UniProt Q91ZH7).
T1 construct: expressed in transfected cells; host or cells: HEK293T, transient transfection, pCMV-Sport6; lysate used in vitro
T1 sequence (Q91ZH7 1-411): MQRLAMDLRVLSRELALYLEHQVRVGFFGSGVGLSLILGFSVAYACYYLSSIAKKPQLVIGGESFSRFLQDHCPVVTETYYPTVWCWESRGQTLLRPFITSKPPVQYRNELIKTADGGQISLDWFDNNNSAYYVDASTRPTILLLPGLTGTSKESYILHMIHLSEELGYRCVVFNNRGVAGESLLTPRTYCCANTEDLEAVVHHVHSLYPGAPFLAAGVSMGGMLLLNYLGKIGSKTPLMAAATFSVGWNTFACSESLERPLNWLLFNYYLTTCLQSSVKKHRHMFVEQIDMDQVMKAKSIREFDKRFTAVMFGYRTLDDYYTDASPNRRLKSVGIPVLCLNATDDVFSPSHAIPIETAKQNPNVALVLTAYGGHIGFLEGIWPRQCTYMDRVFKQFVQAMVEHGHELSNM
Nature of the experiment: Gel-based competitive ABPP, recombinant enzyme in transfected HEK293T cell lysates. It is filed as biochemical. On the procedure: (§1) HEK293T cells were seeded at 2×10^5 per well on 6 well plates and grown for 48 h. They were then transfected with mABHD3 (pCMV-Sport6), hABHD4 (pcDNA3.1/myc-his), hPPT1 (pCMV6-XL5), or hPPT1 S115A (pCMV6-XL5), by incubating 0.5 μg of DNA with 3 μL of PEI MAX (1 mg/mL, Polysciences, Inc) in serum-free DMEM for 30 min, then adding them to cells. After 48 h cells were either treated with compound in situ, as described above, or harvested for in vitro studies. The […] PPT1 mutation was introduced using QuikChange II Site Directed Mutagenesis Kit (Agilent) with the following primers: […]
Human ABHD3 and ABHD4 were recombinantly expressed by transient transfection in HEK293T cells, and the cell lysates were combined to provide a convenient assay for monitor inhibition of both enzymes by gel-based ABPP (see FIG. 8A).

Experiment [3] deals with T2, PPT1 (Homo sapiens, UniProt P50897).
T2 sequence (P50897 28-306): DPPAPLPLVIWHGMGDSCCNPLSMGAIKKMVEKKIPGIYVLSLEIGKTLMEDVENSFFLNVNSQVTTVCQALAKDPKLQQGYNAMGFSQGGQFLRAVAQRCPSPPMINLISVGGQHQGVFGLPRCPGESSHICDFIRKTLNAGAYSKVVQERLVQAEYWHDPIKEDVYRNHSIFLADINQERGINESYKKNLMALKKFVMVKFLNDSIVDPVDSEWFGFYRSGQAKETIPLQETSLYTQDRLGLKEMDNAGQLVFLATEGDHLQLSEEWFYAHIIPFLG
Nature of the experiment: In situ inhibition of hPPT1 in transfected HEK293T cells, competitive ABPP with Compound 39 probe. Set-up: expressed in transfected cells; host or cells: HEK293T. It is filed as cell-based. On the procedure:
as §1
In situ inhibitor treatments of human cell lines were performed as described previously (Hsu et al., J Med Chem 56, 8270-8279, 2012). Briefly, PC3 or transfected HEK293T cells were grown to confluency in serum-containing media (RPMI or DMEM, respectively). The culture media was then removed and replaced with fresh media containing DMSO or inhibitor at the desired concentration and incubated for 4 hours in a tissue culture incubator (37° C., 5% CO2). Cells were then washed with PBS, harvested, washed with PBS once more, and lysed with a probe sonicator.
This possibility was explored by treating HEK293T cells transfected with human PPT1 (hPPT1) with Compound 37 (5 μM, 4 h pre-treatment) or DMSO followed by cell lysis and treatment with Compound 39 (5 μM, 1 h). A strong, but diffuse Compound 37-sensitive, Compound 39-labeled protein band was detected by gel-based ABPP in hPPT1-transfected, but not mock-transfected cell lysates (see FIG. 14), and this diffuse signal was compressed to a tight, faster-migrating band matching the predicted molecular weight of PPT1 following treatment with the glycosidase PNGaseF (see FIG. 14). Western blotting with an anti-PPT1 antibody confirmed a similar migration pattern for hPPT1 protein in transfected cell lysates (see FIG. 14, bottom panel).
A structurally diverse panel of N-hydroxy bicyclic hydantoin carbamates were assayed at 2 or 0.2 μM for in situ inhibition of hPPT1 in transfected HEK293T cells.

Experiment [4] concerns the target T3, ABHD4 (Homo sapiens, UniProt Q8TB40).
T3 sequence (Q8TB40 1-342): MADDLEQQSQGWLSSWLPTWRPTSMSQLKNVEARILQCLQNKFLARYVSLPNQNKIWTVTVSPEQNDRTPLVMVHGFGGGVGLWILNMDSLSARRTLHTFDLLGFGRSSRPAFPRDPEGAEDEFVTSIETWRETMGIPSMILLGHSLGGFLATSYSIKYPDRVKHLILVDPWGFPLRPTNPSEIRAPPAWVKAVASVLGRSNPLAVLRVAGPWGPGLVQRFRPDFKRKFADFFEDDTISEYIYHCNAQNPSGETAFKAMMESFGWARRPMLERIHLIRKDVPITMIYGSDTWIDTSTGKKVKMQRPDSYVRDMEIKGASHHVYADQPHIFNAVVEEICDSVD
Nature of the experiment: NAPE substrate hydrolysis assay, ABHD4-transfected HEK293T cell lysates. The conditions noted are these: lysates from ABHD4-transfected HEK293T cells. The format is biochemical. On the procedure:
NAPE hydrolysis was measured by following the release of oleic acid from the NAPE substrate (1,2-dioleoyl-sn-glycero-3-phospho (N-arachidonoyl) ethanolamine).

[5] abbreviates: mouse LYPLA1/2, in vitro, read-out: mLYPLA1/2 in vitro potency (IC50).
Where [6] appears, read: transfected HEK293T lysates, read-out: mABHD3 in vitro potency (IC50).
Setting [7] is: hPPT1-transfected HEK293T cells, in situ, read-out: hPPT1 (in situ), IC50.

With `O=C(ON1C(=O)[C@@H]2CN(C(=O)N3CCOCC3)CCN2C1=O)N1CCC(CCc2ccc(Cl)cc2)CC1` [Compound 50, (S)-7-(morpholine-4-carbonyl)-1,3-dioxohexahydroimidazo[1,5-a]pyrazin-2(3H)-yl 4-(4-chloro-phenethyl)piperidine-1-carboxylate], in experiment [1] (setting [5]), the IC50 is 117 nM.
With `COc1ccc(N2CCN(C(=O)ON3C(=O)C4CN(Cc5ccc(Oc6ccccc6)cc5)CCN4C3=O)CC2)cc1` (stereo not drawn) [Compound 37, 1,3-dioxo-7-(4-phenoxybenzyl)hexahydroimidazo[1,5-a]pyrazin-2(3H)-yl 4-(4-methoxyphenyl)piperazine-1-carboxylate], the IC50 in experiment [2] (setting [6]) is 7600 nM. Also, the “hPPT1 (in situ), % @ 2 μM” value in experiment [3] (2 μM, hPPT1-transfected HEK293T cells, in situ) stood at 100% @ 2 μM. The “reaction with hPPT1 / blockade of Compound 39 labeling” value in experiment [3] (5 μM, 4 h pre-treatment, hPPT1-transfected HEK293T cells) is “blocked; also recorded: reacted with PPT1”.
As for `O=C(ON1C(=O)C2CN(Cc3ccc(Oc4ccccc4)cc3)CCN2C1=O)N1CCC(c2ccccc2)CC1` (stereo not drawn) [Compound 38, 1,3-dioxo-7-(4-phenoxybenzyl)hexahydroimidazo[1,5-a]pyrazin-2(3H)-yl 4-phenylpiperidine-1-carboxylate], the IC50 was determined as 130 nM in experiment [2] (combined HEK293T lysates, gel-based ABPP, read-out: ABHD3 IC50) and 100 nM in experiment [2] (setting [6]).
For `COc1ccc(N2CCN(C(=O)ON3C(=O)[C@@H]4CN(CC5CCN(Cc6ccccc6)CC5)CCN4C3=O)CC2)cc1` [Compound 42, (S)-7-((1-benzylpiperidin-4-yl)methyl)-1,3-dioxo-hexahydroimidazo[1,5-a]pyrazin-2(3H)-yl 4-(4-methoxyphenyl)piperazine-1-carboxylate], in experiment [1] (setting [5]), the IC50 worked out at 29300 nM.
With `COc1ccc(N2CCN(C(=O)ON3C(=O)C4CN(CC5CCN(Cc6ccccc6)CC5)CCN4C3=O)CC2)cc1` (stereo not drawn) [Compound 26, 7-((1-benzylpiperidin-4-yl)methyl)-1,3-dioxohexahydroimidazo[1,5-a]pyrazin-2(3H)-yl 4-(4-methoxyphenyl)piperazine-1-carboxylate], the “effect on NAPE hydrolysis activity of ABHD4” value in experiment [4] was “neither Compound 26 nor Compound 1 altered”. The “in situ inhibition of hPPT1 at 200 nM” value in experiment [3] (200 nM, transfected HEK293T cells) is recorded as “complete inhibition”. The IC50 in experiment [3] (gel-based competitive ABPP, read-out: in situ IC50 for recombinant PPT1) is 100 nM.
On to `O=C(ON1C(=O)[C@H]2CN(C(=O)N3CCOCC3)CCN2C1=O)N1CCC(CCc2ccc(Cl)cc2)CC1` [Compound 51, (R)-7-(morpholine-4-carbonyl)-1,3-dioxohexahydroimidazo[1,5-a]pyrazin-2(3H)-yl 4-(4-chloro-phenethyl)piperidine-1-carboxylate], for which the IC50 in experiment [1] (setting [5]) was determined as 97 nM.
For the compound `O=C(ON1C(=O)C2CN(C(=O)N3CCOCC3)CCN2C1=O)N1CCC(CCc2ccc(Cl)cc2)CC1` (stereo not drawn) [Compound 1, 7-(morpholine-4-carbonyl)-1,3-dioxohexahydroimidazo[1,5-a]pyrazin-2(3H)-yl 4-(4-chloro-phenethyl)piperidine-1-carboxylate], the IC50 in experiment [1] (LYPLA1/2 quantified together, mouse brain membrane proteome, read-out: mouse LYPLA1/2 collective IC50 in vitro) turned out to be 154 nM; in experiment [3] (setting [7]) it was 500 nM. Further, the “potency and selectivity for LYPLA1/2, concentration-dependent profiling” value in experiment [1] (mouse brain membrane SHs, FIG. 7B) was “good potency and selectivity”. For the same compound, the “effect on NAPE hydrolysis activity of ABHD4” value in experiment [4] is “neither Compound 26 nor Compound 1 altered”.
As to `O=C(ON1C(=O)C2CN(Cc3ccc(Oc4ccccc4)cc3)CCN2C1=O)N1CCOCC1` (stereo not drawn) [Compound 34, 1,3-dioxo-7-(4-phenoxybenzyl)hexahydroimidazo[1,5-a]pyrazin-2(3H)-yl morpholine-4-carboxylate], the IC50 in experiment [2] (setting [6]) is more than 10000 nM; in experiment [4], 500 nM; in experiment [3] (setting [7]), 3900 nM.
